Data from patent publication US20100279941A1, “CD36 MODULATION AND USES THEREOF” (priority 2009, published 2010).

Legend:
[1] = tested on: CD36^+/+ and CD36^−/− mice; assay: Ventricular and ejection volumes by ECG-gated μPET after transient myocardial ischemia; assay type: in vivo; details: EP 80317-treated WT mice vs 0.9% NaCl
Procedure: (§1) Experimental model of IHD: Transient left coronary artery ligation in vivo. Mice were subjected to a transient LCAL surgery as described before, with minor modifications [Tarnayski et al., 2004]. Mice were injected i.p. with buprenorphine (0.05 mg/kg) and placed in an induction chamber with inhalation anesthesia comprised of 3% isoflurane mixed with 100% oxygen. Mice were intubated with a blunt ended 20-gauge catheter into the trachea via the mouth and mechanically ventilated at a tidal volume of 7 ml/kg at 130 respirations/min with a MiniVent™ mouse ventilator (model 845, Harvard Apparatus, Saint-Laurent, QC, Canada). Anesthesia was maintained with 1.5-2% isoflurane and the animals were kept warm using electrical heating pads during the surgical procedure. The chest was opened by a horizontal incision through the skin and muscle layers at the third intercostal space exposing the left side of the heart. […] Visual blanching distal to the coronary occlusion confirmed myocardial ischaemia. Lidocaine (6 mg/kg) was administered i.p. just following occlusion and prior to reperfusion. After 30 minutes, the PE10 tubing was removed allowing reperfusion. The lungs were reinflated and the chest wound closed layer by layer before extubation. At 6 hours following reperfusion, mice were anesthetized (isoflurane), a blood sample withdrawn, and the heart arrested in diastole by an intravenous injection of 1 M KCl (0.5 mL). Hearts were immediately frozen at −80° C. unless otherwise stated.
Imaging experiments. Imaging experiments were performed with the avalanche photodiode-based small animal PET scanner (μPET) [Lecomte et al., 1996]. Before imaging, the heart position was localized with a Doppler probe (0.64 cm, 9 MHz; Parks Medical Electronics). […]
Imaging Data Analysis. For [^11C]-acetate images, dynamic series of 25 frames each were sorted out whereas 27 frames were used for ^18FDG and ^18FTHA imaging, and were reconstructed and analyzed using multicompartmental analysis [Menard et al., 2009] or the Patlak method for FTHA [Patlak and Blasberg, 1985]. […]

AMPK = assay: Western blot of left ventricle: phosphorylated AMPK to total AMPK; assay type: in vivo, mice
Procedure: as §1, with “At 6 hours following reperfusion, mice were anesthetized (isoflurane), a blood sample withdrawn, and the heart arrested in diastole by an intravenous injection of 1 M KCl (0.5 mL).” left out
Western blot analysis. Total ventricular protein lysates were prepared as described previously [Bodart et al., 2002]. Left ventricles were homogenized in PBS containing a protease inhibitor cocktail (Roche Applied Science, Indianapolis, Ind., USA) and 1 mM sodium orthovanadate. Homogenates were incubated for 10 min on ice with an equal volume of lysis buffer (NaCl 300 mM, Tris-HCl 100 mM, 2% Triton X-100, 0.2% SDS, 50 mM NaF, 4 mM EDTA, 1 mM sodium orthovanadate and protein inhibitors, pH=7.5), and centrifuged at 14,000 g for 30 minutes at 4° C. The protein concentration of the su pernatant was determined by the bicinchoninic acid (BCA) protein assay (Pierce Biotechnology, Rockford, Ill., USA). Equal amounts (50 or 100 μg) of protein extracts were separated on 10% SDS-polyacrylamide gels and transferred electrophoretically to polyvinylidene difluoride (PVDF) membranes (Bio-Rad Laboratories, Hercules, Calif., USA) for immunoblotting. […] Antibody binding was detected by enhanced chemiluminescence using an alpha Imager™ (Alpha Innotech Corporation, San Leandro, Calif., USA). Quantification of the digital images obtained was performed using ImageQuant™ 5.2 software (Molecular Dynamics, Sunnyvale, Calif., USA).

HAIC-2MeDTrp-DLys-Trp-DPhe-Lys-NH2 [EP 80317]
increase of end-systolic ventricular volume [1]: 26%
increase of end-diastolic ventricular volume ([1]; p<0.01): 31%
increase of stroke volume ([1]; p<0.01): 33%
increase of P-AMPK to total AMPK band density ratio (AMPK; 6 hours reperfusion, CD36^+/+ mice, p<0.01): 121%
effect on P-AMPK/AMPK ratio (AMPK; 6 hours reperfusion, CD36^−/− mice, in words): no effect
P-AMPK/AMPK density ratio (AMPK; 48 hours reperfusion, CD36^+/+ mice, in words): tended to decrease
effect on AMPK phosphoprotein signal (AMPK; 48 hours reperfusion, genotype not printed in the sentence (FIG. 7D), in words): no significant effect
